In patent US12122778B2, “Activating pyruvate kinase R” (Novo Nordisk Health Care AG, priority 2018, dated 2024):

Experiments:
PKR(wt) = PKR(wt) (Homo sapiens, UniProt P30613); test: Luminescence Biochemical Assay (Kinase Glo Plus), wild type PKR; conditions: without FBP; for activation at 1.54 µM: 1.54 μM compound, read-out: AC50 LUM KGP woFBP % Fold@1.54 μM mean; for AC50: read-out: AC50 LUM KGP woFBP AC50 μM gmean; for Emax: read-out: AC50 LUM KGP woFBP MAX % FOLD mean
PKR(G332S) = PKR(G332S) (Homo sapiens, UniProt P30613, G332S); test: Luminescence Biochemical Assay (Kinase Glo Plus), PKR G332S mutant; conditions: with FBP; for activation at 1.54 µM: 1.54 μM compound, read-out: AC50 LUM KGP FBP % Fold@1.54 μM mean; for AC50: read-out: AC50 LUM KGP FBP AC50 μM gmean (column A); for Emax: read-out: AC50 LUM KGP FBP MAX % FOLD mean
Chain of PKR(G332S) (P30613 whole entry G332S): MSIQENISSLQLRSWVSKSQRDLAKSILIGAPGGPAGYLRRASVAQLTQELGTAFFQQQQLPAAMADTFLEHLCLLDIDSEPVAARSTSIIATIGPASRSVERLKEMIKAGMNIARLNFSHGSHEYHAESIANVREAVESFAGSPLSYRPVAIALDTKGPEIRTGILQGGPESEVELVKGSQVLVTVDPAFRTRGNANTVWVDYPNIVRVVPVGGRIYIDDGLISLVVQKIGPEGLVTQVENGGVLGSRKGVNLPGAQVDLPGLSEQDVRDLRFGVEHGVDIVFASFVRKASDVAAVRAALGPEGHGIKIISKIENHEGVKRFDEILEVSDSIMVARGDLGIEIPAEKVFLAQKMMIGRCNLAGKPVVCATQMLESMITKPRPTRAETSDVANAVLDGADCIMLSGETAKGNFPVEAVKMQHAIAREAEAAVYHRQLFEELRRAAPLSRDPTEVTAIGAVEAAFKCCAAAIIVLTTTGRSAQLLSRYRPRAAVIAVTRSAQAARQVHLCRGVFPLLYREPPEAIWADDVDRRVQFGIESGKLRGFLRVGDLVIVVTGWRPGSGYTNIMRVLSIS

PKR(R510Q) = PKR(R510Q) (Homo sapiens, UniProt P30613, R510Q); test: Luminescence Biochemical Assay (Kinase Glo Plus), PKR R510Q mutant; conditions: without FBP; for activation at 1.54 µM: 1.54 μM compound, read-out: AC50 LUM KGP woFBP % Fold@1.54 μM mean; for AC50: read-out: AC50 LUM KGP woFBP AC50 μM gmean; for Emax: read-out: AC50 LUM KGP woFBP MAX % FOLD mean
Chain of PKR(R510Q) (P30613 whole entry R510Q): as the sequence (P30613 whole entry G332S) above, with S332G, R510Q counted along it

Chain of PKR(wt) (P30613 whole entry): as the sequence (P30613 whole entry G332S) above, with S332G counted along it

activation at 1.54 µM (PKR(wt)) [%] | AC50 (PKR(wt)) [µM] | Emax (PKR(wt)) [%] | activation at 1.54 µM (PKR(G332S)) [%] | AC50 (PKR(G332S)) [µM] | Emax (PKR(G332S)) [%] | activation at 1.54 µM (PKR(R510Q)) [%] | AC50 (PKR(R510Q)) [µM] | Emax (PKR(R510Q)) [%] | Structure (SMILES)
75 to 250 | 0.1 to 1 | 250 to 500 | 75 to 250 | 0.1 to 1 | 75 to 250 | 250 to 50000 | 0.1 to 1 | 250 to 500 | O=C(NCc1ccccc1F)N1CC2=C(C1)CN(S(=O)(=O)c1cccnc1)C2 [Example 21-37, N-[(2-fluorophenyl)methyl]-5-(pyridine-3-sulfonyl)-1H,2H,3H,4H,5H,6H-pyrrolo[3,4-c]pyrrole-2-carboxamide]
75 to 250 | 1 to 40 | 75 to 250 | 75 to 250 | 1 to 40 | 75 to 250 | 75 to 250 | 1 to 40 | 75 to 250 | O=C(NCc1ccc(F)cc1)N1CC2=C(C1)CN(S(=O)(=O)c1ccc(C(F)(F)F)nc1)C2 [Example 21-39, N-[(4-fluorophenyl)methyl]-5-{[6-(trifluoromethyl)pyridin-3-yl]sulfonyl}-1H,2H,3H,4H,5H,6H-pyrrolo[3,4-c]pyrrole-2-carboxamide]
75 to 250 | 0.1 to 1 | 75 to 250 | 75 to 250 | 1 to 40 | 75 to 250 | 75 to 250 | 0.1 to 1 | 75 to 250 | O=C(NCc1ccccc1F)N1CC2=C(C1)CN(S(=O)(=O)c1ccc(C(F)(F)F)nc1)C2 [Example 21-40, N-[(2-fluorophenyl)methyl]-5-{[6-(trifluoromethyl)pyridin-3-yl]sulfonyl}-1H,2H,3H,4H,5H,6H-pyrrolo[3,4-c]pyrrole-2-carboxamide]
75 to 250 | 0.1 to 1 | 250 to 500 | 75 to 250 | 1 to 40 | 75 to 250 | 75 to 250 | 0.1 to 1 | 75 to 250 | O=C(NCc1ccc(F)cc1)N1CC2=C(C1)CN(S(=O)(=O)c1ccccn1)C2 [Example 21-41, N-[(4-fluorophenyl)methyl]-5-(pyridine-2-sulfonyl)-1H,2H,3H,4H,5H,6H-pyrrolo[3,4-c]pyrrole-2-carboxamide]
250 to 50000 | 0.1 to 1 | 250 to 500 | 75 to 250 | 0.1 to 1 | 75 to 250 | 250 to 50000 | 0.1 to 1 | 250 to 500 | O=C(NCc1ccccc1F)N1CC2=C(C1)CN(S(=O)(=O)c1ccccn1)C2 [Example 21-42]
75 to 250 | 1 to 40 | 250 to 500 | 75 to 250 | 0.1 to 1 | 75 to 250 | 75 to 250 | 1 to 40 | 250 to 500 | Cc1cc(CNC(=O)N2CC3=C(C2)CN(S(=O)(=O)c2ccccn2)C3)no1 [Example 21-43, N-[(5-methyl-1,2-oxazol-3-yl)methyl]-5-(pyridine-2-sulfonyl)-1H,2H,3H,4H,5H,6H-pyrrolo[3,4-c]pyrrole-2-carboxamide]
75 to 250 | 1 to 40 | 250 to 500 | 75 to 250 | 1 to 40 | 75 to 250 | 75 to 250 | 1 to 40 | 250 to 500 | O=C(OCC1CC1)N1CC2=C(C1)CN(S(=O)(=O)c1ccc(OC(F)F)cc1)C2 [Example 22-2, Cyclopropylmethyl 5-[4-(difluoromethoxy)benzenesulfonyl]-1H,2H,3H,4H,5H,6H-pyrrolo[3,4-c]pyrrole-2-carboxylate]
75 to 250 | 1 to 40 | 75 to 250 | 75 to 250 | 1 to 40 | 75 to 250 | 75 to 250 | 1 to 40 | 75 to 250 | O=C(OCC1CCOC1)N1CC2=C(C1)CN(S(=O)(=O)c1ccc(OC(F)F)cc1)C2 (stereo not drawn) [Example 22-3, Oxolan-3-ylmethyl 5-[4-(difluoromethoxy)benzenesulfonyl]-1H,2H,3H,4H,5H,6H-pyrrolo[3,4-c]pyrrole-2-carboxylate]
250 to 50000 | 0.1 to 1 | 250 to 500 | 75 to 250 | 0.1 to 1 | 75 to 250 | 250 to 50000 | 1 to 40 | 250 to 500 | Cc1cc(COC(=O)N2CC3=C(C2)CN(S(=O)(=O)c2ccc(OC(F)F)cc2)C3)nn1C [Example 22-4, (1,5-Dimethyl-1H-pyrazol-3-yl)methyl 5-[4-(difluoromethoxy)benzenesulfonyl]-1H,2H,3H,4H,5H,6H-pyrrolo[3,4-c]pyrrole-2-carboxylate]
250 to 50000 | 0.1 to 1 | 250 to 500 | 75 to 250 | 0.1 to 1 | 75 to 250 | 250 to 50000 | 0.1 to 1 | 250 to 500 | Cc1cc(COC(=O)N2CC3=C(C2)CN(S(=O)(=O)c2ccc(OC(F)F)cc2)C3)no1 [Example 22-5, (5-Methyl-1,2-oxazol-3-yl)methyl-5-[4-(difluoromethoxy)benzenesulfonyl]-1H,2H,3H,4H,5H,6H-pyrrolo[3,4-c]pyrrole-2-carboxylate]
